From patent US12156871B2, “Substituted azacycles as muscarinic M1 receptor positive allosteric modulators” (SUVEN LIFE SCIENCES LIMITED, priority 2017, dated 2024)

Tests used:
[1] = molecular target: T1, human Muscarinic M1 receptor (Homo sapiens, UniProt P11229); test: Allosteric potency EC50 for muscarinic M1 receptor, CHO pCRE-Luc reporter cell assay; type: cell-based; conditions: in presence of EC20 of acetylcholine; CHO cells, luciferase reporter, 4 h
T1 sequence (P11229 1-460): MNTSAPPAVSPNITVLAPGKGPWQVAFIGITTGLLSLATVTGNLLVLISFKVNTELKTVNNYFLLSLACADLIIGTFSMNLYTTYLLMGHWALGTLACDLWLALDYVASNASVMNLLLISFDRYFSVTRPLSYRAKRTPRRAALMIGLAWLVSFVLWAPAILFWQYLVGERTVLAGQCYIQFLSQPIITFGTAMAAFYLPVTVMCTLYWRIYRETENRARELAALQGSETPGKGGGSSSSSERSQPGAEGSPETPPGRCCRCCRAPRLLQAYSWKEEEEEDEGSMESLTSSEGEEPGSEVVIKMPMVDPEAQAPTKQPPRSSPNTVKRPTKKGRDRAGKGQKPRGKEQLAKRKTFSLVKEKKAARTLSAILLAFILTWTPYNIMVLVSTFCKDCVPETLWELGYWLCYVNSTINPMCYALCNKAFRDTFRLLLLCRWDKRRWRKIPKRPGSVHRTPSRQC
Experimental: A stable CHO cell line expressing recombinant human Muscarinic M1 receptor and pCRE-Luc reporter system was used for cell-based assay. The assay offers a non-radioactive based approach to determine binding of a compound to GPCRs. In this specific assay, the level of intracellular cyclic AMP which is modulated by activation or inhibition of the receptor is measured. The recombinant cells harbor luciferase reporter gene under the control of cAMP response element.
The above cells were grown in 96 well clear bottom white plates in Hams F12 medium containing 10% fetal bovine serum (FBS). Prior to the addition of compounds or standard agonist, cells were serum starved overnight. Increasing concentrations of test compounds were added along with EC20 of acetylcholine in OptiMEM medium to the cells. The incubation was continued at 37° C. in CO2 incubator for 4 h. Medium was removed and cells were washed with phosphate buffered saline. The cells were lysed and luciferase activity was measured in a Luminometer. Luminescence units were plotted against the compound concentrations using Graphpad software. EC50 values of the compounds were defined as the concentration required in stimulating the luciferase activity by 50% in presence of EC20 of acetylcholine.

[2] = Protein binding assay (HT dialysis), rat plasma; type: in vitro ADME; conditions: pH 7.4, Mean ± SEM, n = 3, read-out: Fu Plasma
Experimental: (§1) Unbound fractions of test compounds in plasma, brain homogenate and liver microsomes were determined using high-throughput dialysis (HT dialysis). Briefly, dialysis membranes were soaked in deionized water for 20 minutes and then in deionized water with 30% ethanol for 15 minutes and finally in phosphate buffer until use. Membranes were rinsed in phosphate buffer before assembling. The membranes were layered between teflon bars of dialysis assembly. Stock solutions of test compound/comparative compound were prepared at 10 mM in DMSO, diluted to 1 mM in acetonitrile and further diluted to 100 μM in mixture of water and acetonitrile (1:1 v/v). Human plasma (pool of 3) was prepared from human blood (3 donors) by centrifuging at 4000 rpm for 10 min at 4° C. Rat and dog blood were obtained on the day of the study and centrifuged to obtain plasma. Rat brains were isolated, cleaned and homogenized with 2 volumes of buffer (3 fold dilution). Liver microsomes were prepared at 0.5 mg/mL in phosphate buffer (100 mM, pH 7.4). The dialysate chambers were loaded with 150 μL of 100 mM phosphate buffer (pH 7.4) in triplicates. The matrix chambers were loaded with 150 μL of the plasma or brain homogenate or microsomal suspension spiked with test compound/comparative compound at a final concentration of 1 μM. 50 μL of the sample was removed from both the chambers at 0 h. The plate was sealed and incubated at 37° C. for 6 h at 100 rpm. After 6 h, 50 μL of the sample was removed from both the chambers. Equal volumes of buffer or human plasma/microsomal suspension were added to the plasma/microsomal and buffer samples respectively to create identical sample matrices for analysis. The samples were precipitated with 150 μL of acetonitrile containing fluoxetine as an internal standard. All the samples were centrifuged at 10000 rpm for 10 minutes at 4° C.

[3] = Protein binding assay (HT dialysis), dog plasma; type: in vitro ADME; conditions: pH 7.4, Mean ± SEM, n = 3, read-out: Fu Plasma (converted)
Experimental: as §1

[4] = Protein binding assay (HT dialysis), human plasma; type: in vitro ADME; conditions: pH 7.4, Mean ± SEM, n = 3, read-out: Fu Plasma (converted)
Experimental: as §1

[5] = Protein binding assay (HT dialysis), rat brain homogenate; type: in vitro ADME; conditions: pH 7.4, Mean ± SEM, n = 3, read-out: Fu Brain
Experimental: as §1

[6] = Protein binding assay (HT dialysis), rat liver microsomes; type: in vitro ADME; conditions: pH 7.4, Rat liver microsomes 0.5 mg/mL, Mean ± SEM, n = 3, read-out: Fu Microsomes
Experimental: as §1

[7] = Protein binding assay (HT dialysis), dog liver microsomes; type: in vitro ADME; conditions: pH 7.4, Dog liver microsomes 0.5 mg/mL, Mean ± SEM, n = 3, read-out: Fu Microsomes (converted)
Experimental: as §1

[8] = Object recognition task model; type: in vivo, Male Wistar rats; conditions: rat, 3 mg/kg, p.o.; for Exploration time mean ± S.E.M, Familiar object / Exploration time mean ± S.E.M, Novel object: choice trial 24 h after T1
Experimental: The cognition enhancing properties of compounds of this invention were estimated by using this model.
Male Wistar rats (8-10 weeks old) were used as experimental animals. Four animals were housed in each cage. Animals were kept on 20% food deprivation from a day prior to experimentation. Water was provided ad libitum throughout the experiment. Animals were maintained on a 12 h light/dark cycle in temperature and humidity controlled room. The experiment was carried out in an circular made up of acrylic. Rats were habituated to individual arenas for up to 1 h in the absence of any objects on day 1.
One group of 12 rats received vehicle and another set of animals received compound of the formula (I), before the familiar (T1) and choice (T2) trials. During the familiarization phase, (T1), the rats were placed individually in the arena for 3 minutes, in which two identical objects (a1 and a2) were positioned 10 cm from the wall. 24 h after T1, trial for long-term memory test was performed. The same rats were placed in the same arena as they were placed in T1 trial. During the choice phase (T2) rats were allowed to explore the arena for 3 minutes in presence of a copy of familiar object (a3) and one novel object (b). During the T1 and T2 trial, explorations of each object (defined as sniffing, licking, chewing or having moving vibrissae whilst directing the nose towards the object at a distance of less than 1 cm) were recorded using stopwatch. • T1 is the total time spent exploring the familiar objects (a1+a2). • T2 is the total time spent exploring the familiar object and novel object (a3+b).
The object recognition test was performed as described by Ennaceur, A., Delacour, J., 1988, A new one-trial test for neurobiological studies of memory in rats—Behavioural data, Behav. Brain Res., 31, 47-59.

| EC50 [1] [µM] | fraction unbound at 6 h, 1 μM [2] | fraction unbound at 6 h, 1 μM [3] | fraction unbound at 6 h, 1 μM [4] | fraction unbound at 6 h, 1 μM [5] | fraction unbound at 6 h, 1 μM [6] | fraction unbound at 6 h, 1 μM [7] | SMILES | Inference [8] | Exploration time mean ± S.E.M, Familiar object [8] [s] | Exploration time mean ± S.E.M, Novel object [8] [s] |
| --- | --- | --- | --- | --- | --- | --- | --- | --- | --- | --- |
| 0.954 | 0.113 ± 0.003 | 0.115 | 0.124 | 0.123 ± 0.009 | 0.798 ± 0.12 | 0.906 | COc1ccc(Cc2cc3c(nc2C)CN([C@H]2CCCC[C@@H]2O)C3=O)cc1 [Example 6, 6-(1S,2S-2-Hydroxycyclohexyl)-2-methyl-3-(4-methoxybenzyl)-6,7-dihydropyrrolo[3,4-b]pyridin-5-one] | Active | 7.27 ± 1.31 | 15.9 ± 2.47 |
| 2.28 | 0.103 ± 0.003 | 0.116 | 0.192 | 0.084 ± 0.002 | 0.826 ± 0.03 | 0.843 | COc1cccc(Cc2cc3c(nc2C)CN([C@H]2CCCC[C@@H]2O)C3=O)c1 [Example 38, 6-(1S,2S-2-Hydroxycyclohexyl)-2-methyl-3-(3-methoxybenzyl)-6,7-dihydropyrrolo[3,4-b]pyridin-5-one] | Active | 10.12 ± 2.12 | 19.89 ± 3.32 |
